How the values were obtained:
[1] = system: MAPK kinase (MEK); settings: Harmon et al., 2004; cited from earlier work
[2] = system: 3T3 parental cells; test: Herstatin cell binding ELISA on parental cells; settings: NIH-3T3 parental cells, 2 hrs on ice
Protocol: (§1) ELISA. Monolayer cultures of ˜2×10^6 cells were plated in 6-well tissue culture plates, and were incubated with purified Herstatin for 2 hours at 4° C. in serum-free DMEM. Cells were washed with Phosphate Buffered Saline (PBS) and extracted in 50 mM Tris·HCl, pH 7.0, 1.0% NP-40. Herstatin bound to cells were quantified using a sandwich Herstatin ELISA per manufacturer's instructions (Upstate Biotechnology, Lake Placid, N.Y.).
(§2) The dissociation constant (KD) and maximal binding (Bmax) of Herstatin were determined by nonlinear regression analysis of the plot of pmol of bound versus nM of Herstatin added. Statistical comparisons between different binding curves were performed by extra sums-of-squares F-test nonlinear regression coefficients. All tests were performed (α=0.05) using GraphPad™ Prism 4™ software (GraphPad™ Software, 1994-2003).
(§3) Results. The interaction between Herstatin and IR was investigated. […] Increasing concentrations of Herstatin, expressed and purified from stably-transfected S2 insect cells, were added to 3T3 parental cells (filled triangles; “NIH-3T3”) or 3T3 cells transfected with a human IR cDNA (filled squares; “IRA-3T3”) as previously described (Shamieh et al., FEBS Letters, 568:163-166, 2004). After incubation for 2 hrs on ice, the cells were washed twice with PBS, and the bound Herstatin was quantified using a Herstatin ELISA (Upstate). […]

[3] = system: P13K/Akt pathway; test: Insulin-stimulated Akt activation in MCF-7 cells; format: cell-based, human; settings: Herstatin-expressing MCF-7 cells vs control
Protocol: Western blot analysis, and antibodies. For Western blot analyses, whole-cell lysates or immunoprecipitated proteins were resolved by SDS-PAGE and transferred onto nitrocellulose membranes (BioRad, Hercules, Calif.). Blots were blocked in 5% milk and incubated with primary antibody overnight at 4° C. The antibodies included anti-insulin receptor (IR; against the β subunit), anti-IGF-IR, anti-IRS-1, anti-IRS-2, anti-phosphotyrosine, anti-phospho-Akt, anti-Akt, anti-phospho-ERK, anti-ERK, and anti-Shc antibodies (Santa Cruz Biotechnology, Transduction Laboratories, Cell Signaling Technologies, Upstate Laboratories, or Biosource). […]
Results. […] Insulin was then added to the control and Herstatin-expressing cells and whole-cell lysates were prepared at the indicated times and processed directly for Western immunoblots with anti-insulin receptor (IR), phospho-Akt, Akt, phospho-ERK, and ERK antibodies, or first immunoprecipitated with anti-IR antibody and immunoprecipitates (IP) then analyzed by Western immunoblotting with anti-phosphotyrosine and anti-IR antibodies after transfer to nitrocellulose membranes. Following incubation of blots with primary antibodies, immunoreactive proteins were detected by enhanced chemiluminescence after a secondary incubation with HRP-conjugated secondary antisera. […]

[4] = target: T1, IGF-IR (Homo sapiens, UniProt P08069); test: IGF-IR expression, Western immunoblot in MCF-7 cells; format: cell-based; settings: Herstatin-expressing MCF-7 cells vs control
T1 construct: Lysates from control and Herstatin-expressing MCF-7 cells were prepared from respective untreated (no insulin) cells; endogenous in cells; host or cells: MCF-7 (control and Herstatin-expressing clones)
Protocol: (§4) Western blot analysis, and antibodies. For Western blot analyses, whole-cell lysates or immunoprecipitated proteins were resolved by SDS-PAGE and transferred onto nitrocellulose membranes (BioRad, Hercules, Calif.). Blots were blocked in 5% milk and incubated with primary antibody overnight at 4° C. The antibodies included anti-insulin receptor (IR; against the β subunit), anti-IGF-IR, anti-IRS-1, anti-IRS-2, anti-phosphotyrosine, anti-phospho-Akt, anti-Akt, anti-phospho-ERK, anti-ERK, and anti-Shc antibodies (Santa Cruz Biotechnology, Transduction Laboratories, Cell Signaling Technologies, Upstate Laboratories, or Biosource). After washing, the blots were incubated with secondary antibody conjugated to HRP for 30 min (BioRad, Hercules, Calif.). The membranes were developed with SuperSignal™ West Dura (Pierce, Rockford, Ill.) and exposed to x-ray film.
(§5) Results. […] Lysates from control and Herstatin-expressing MCF-7 cells were prepared from respective untreated (no insulin) cells following overnight incubation in serum-free media, and processed directly or (in the case of the IR) also immunoprecipitated prior to Western immunoblot analysis as described in relation to FIG. 2.

[5] = system: IRS-1, IRS-2, Shc, ERK1 and ERK2; test: Expression/phosphorylation state of insulin signaling proteins (IRS-1, IRS-2, Shc, ERK) in MCF-7 cells; format: cell-based, human; settings: Herstatin-expressing MCF-7 cells vs control, no insulin
Protocol: as §4, §5

[6] = target: T2, insulin receptor (IR) (Homo sapiens, UniProt P06213); test: Herstatin cell binding ELISA on IRA-3T3 cells; set-up: expressed in transfected cells; host or cells: NIH-3T3 (IRA-3T3); settings: 3T3 cells transfected with human IR cDNA (IRA-3T3), purified Herstatin from S2 insect cells, 2 hrs on ice
Protocol: as §1, §2, §3

[7] = target: T2, insulin receptor (IR); test: IR expression and activation, Western immunoblot in MCF-7 cells; format: cell-based; set-up: whole-cell lysates were prepared at the indicated times and processed directly for Western immunoblots with anti-insulin receptor (IR); endogenous in cells; host or cells: MCF-7 (control and Herstatin-expressing clones)
Protocol: as §4
Methods. Cell lines, expression vectors, protein purification, pull down assays, antibodies, Western blot analysis and ELISA assays were as described under EXAMPLE I, herein above. Insulin was added either to MCF-7 breast carcinoma cells, or to an MCF-7 cell line stably transfected with a Herstatin expression vector, to determine whether Herstatin expression affects IR expression, and/or insulin-stimulated IR signal transduction.
Results. […] Control and Herstatin-expressing MCF-7 cells were grown in complete medium prior to an overnight incubation in serum-free medium. Insulin was then added to the control and Herstatin-expressing cells and whole-cell lysates were prepared at the indicated times and processed directly for Western immunoblots with anti-insulin receptor (IR), phospho-Akt, Akt, phospho-ERK, and ERK antibodies, or first immunoprecipitated with anti-IR antibody and immunoprecipitates (IP) then analyzed by Western immunoblotting with anti-phosphotyrosine and anti-IR antibodies after transfer to nitrocellulose membranes. Following incubation of blots with primary antibodies, immunoreactive proteins were detected by enhanced chemiluminescence after a secondary incubation with HRP-conjugated secondary antisera. […]

[8] = system: insulin signaling; test: EGFR inhibitor study: insulin signaling (ERK and Akt/PKB activation) in control MCF-7 cells; format: cell-based, human; settings: inhibitor 5 minutes prior to 10 nM insulin, FIG. 5
Protocol: (§6) Control MCF-7 cells were serum-starved overnight and treated with the EGFR kinase inhibitor AG1478 (Sigma) or vehicle (DMSO) for 5 minutes prior to the addition of 14 nM EGF or 10 nM insulin (Sigma). After growth factor treatment, cell lysates were prepared and analyzed for ERK and Akt/PKB activation as described above. The 24-hour treatment was done in regular growth medium.

[9] = system: insulin receptor; test: EGFR inhibitor study: insulin receptor level in MCF-7 cells; format: cell-based, human; settings: 24-hour treatment in regular growth medium, FIG. 6
Protocol: as §6

[10] = Herstatin-expressing MCF-7 cells vs control MCF-7

For `N#CC(=C(/N)Sc1ccccc1N)/C(C#N)=C(/N)Sc1ccccc1N` [U-0216], the “inhibition of insulin-stimulated glucose uptake” value [1] is listed as “significant inhibition”.

In the case of “Herstatin: secreted product of an HER-2 alternative transcript; cell surface receptor isoform (intron fusion protein), polypeptides of SEQ ID NO:2”, the “Herstatin binding to 3T3 parental cells” value [2] is reported as “but not to 3T3 parental cells”, the “effect on insulin-stimulated activation of the P13K/Akt pathway” value [3] is reported as “little effect” and the “decrease in IGF-IR expression” value [4] is reported as roughly 4 fold. For the same molecule, the IRS-2 levels [5] was “slight decrease”, the “apparent serine phosphorylation of IRS-2” value [5] was “decrease” and the “apparent serine phosphorylation state of IRS-1” value [5] was “decrease”. The “relative expression of Shc isoforms” value [5] was “alters the relative expression of Shc isoforms”, the “relative expression ratio of ERK1 and ERK2” value [5] was “increases the relative expression ratio of ERK1 and ERK2” and the “Herstatin binding to cells expressing IR” value [6] was “binds at nM concentrations”. For the same molecule, the “accumulation of pro-IR” value [7, 10] was “induce the accumulation of pro-IR”, the “up-regulation of basal IR expression” value [7, 10] was “several-fold” and the “IR activation by insulin” value ([7]; Herstatin-expressing MCF-7 cells, insulin added after overnight serum-free, anti-phosphotyrosine blot of IR IP) was “up-regulated IR activation”.

In the case of `COc1cc2ncnc(Nc3cccc(Cl)c3)c2cc1OC` [AS1478], the “effect on insulin signaling” value [8] is reported as “did not affect insulin signaling” and the “increase in insulin receptor (IR)” value [9] is reported as “does not Affect Insulin Signaling or Lead to an Increase in IR”.

For `COc1cccc(-c2cc(=O)c3ccccc3o2)c1N` [PD-98059], the “inhibition of insulin-stimulated glucose uptake” value [1] is given as “significant inhibition”.

— patent US20080206231A1, “Compositions and Methods for Treating Disease” (OREGON HEALTH AND SCIENCE UNIVERSITY, priority 2004, published 2008)
